T/C data for 21 molecules are collected here from PubChem BioAssay AID330 (DTP/NCI, 2004).

Structures are written as SMILES. “And” between values parts separate entries of the source, which are not always exact repeats. Equal values may be shown once. Inconclusive results and toxic doses are left out.

The assay has as its system P388 leukemia ip, CD2F1 mice, survival T/C. Kind of assay: NCI In Vivo Anticancer Drug Screen. Data for tumor model P388 Leukemia (intraperitoneal) in CD2F1 (CDF1) mice. To be noted: endpoint: median survival time, higher = longer survival. The essentials:
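Mice carrying the transplanted tumor received test compound or vehicle. Survival was recorded in each group, and the value is the treated-group measurement divided by that of the vehicle-treated control group.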

The mark [1] stands for this setting: dose: 25.0 mg/kg/injection, schedule: Q01DX009 (ip), vehicle: saline with Tween-80.
Setting [2] is: dose: 50.0 mg/kg/injection, schedule: Q01DX009 (ip), vehicle: saline with Tween-80.
[3] abbreviates: dose: 50.0 mg/kg/injection, schedule: Q01DX005 (ip), vehicle: saline with Tween-80.
Where [4] appears, read: dose: 100.0 mg/kg/injection, schedule: Q01DX005 (ip), vehicle: saline with Tween-80.
Setting [5] is: dose: 100.0 mg/kg/injection, schedule: Q01DX001 (ip), vehicle: Klucel (hydroxypropylcellulose) (HPC).
Setting [6] is: dose: 200.0 mg/kg/injection, schedule: Q01DX001 (ip), vehicle: Klucel (hydroxypropylcellulose) (HPC).
[7] abbreviates: dose: 100.0 mg/kg/injection, schedule: Q01DX009 (ip), vehicle: saline with Tween-80.
Setting [8] is: dose: 50.0 mg/kg/injection, schedule: Q01DX005 (ip), vehicle: Klucel (hydroxypropylcellulose) (HPC).
[9] abbreviates: dose: 100.0 mg/kg/injection, schedule: Q01DX005 (ip), vehicle: Klucel (hydroxypropylcellulose) (HPC).
Where [10] appears, read: dose: 50.0 mg/kg/injection, schedule: Q01DX009 (ip), vehicle: Klucel (hydroxypropylcellulose) (HPC).
Where [11] appears, read: dose: 100.0 mg/kg/injection, schedule: Q01DX009 (ip), vehicle: Klucel (hydroxypropylcellulose) (HPC).
Where [12] appears, read: dose: 200.0 mg/kg/injection, schedule: Q01DX009 (ip), vehicle: Klucel (hydroxypropylcellulose) (HPC).
The mark [13] stands for this setting: dose: 200.0 mg/kg/injection, schedule: Q01DX005 (ip), vehicle: Klucel (hydroxypropylcellulose) (HPC).

With `C/C(=N\Nc1nncn2cccc12)c1ccccc1`, the T/C is, setting by setting: (dose: 100.0 mg/kg/injection, schedule: Q04DX002 (ip), vehicle: saline with Tween-80) 113 % of control; (dose: 200.0 mg/kg/injection, schedule: Q04DX002 (ip), vehicle: saline with Tween-80) 120 % of control; (dose: 400.0 mg/kg/injection, schedule: Q04DX002 (ip), vehicle: saline with Tween-80) 124 % of control.
For the molecule `C=Cn1c([N+](=O)[O-])cnc1/C=C/c1ccc(C(=O)OCCN2CCCC2)cc1`, the T/C was 105 % of control (dose: 12.5 mg/kg/injection, schedule: Q01DX001 (ip), vehicle: DMSO); 98 % of control (dose: 25.0 mg/kg/injection, schedule: Q01DX001 (ip), vehicle: DMSO); 104 % of control (dose: 50.0 mg/kg/injection, schedule: Q01DX001 (ip), vehicle: DMSO); 100 % of control (dose: 100.0 mg/kg/injection, schedule: Q01DX001 (ip), vehicle: DMSO).
On to `c1ccc(-c2ccc[n+](CCCC[n+]3cccc(-c4ccccn4)c3)c2)nc1`, for which the T/C runs as follows: (dose: 7.5 mg/kg/injection, schedule: Q01DX005 (ip), vehicle: saline) 106 % of control; (dose: 15.0 mg/kg/injection, schedule: Q01DX005 (ip), vehicle: saline) 106 % of control.
As for `c1ccc2c(c1)[nH]c1ccncc12`, the T/C runs as follows: under setting [1], 95 % of control; under setting [2], 95 % of control.
On to `Cc1ccc(S(=O)(=O)OC2COC(OCc3ccccc3)C(OS(=O)(=O)c3ccc(C)cc3)C2O)cc1` (centres undefined), for which the T/C is, setting by setting: under setting [3], 100 % of control; under setting [4], 86 % of control.
As to `Cn1nnn(Cc2ccccc2)/c1=N/C(=S)Nc1ccccc1`, the T/C by setting is: under setting [5], 99 % of control; under setting [6], 95 % of control; (dose: 400.0 mg/kg/injection, schedule: Q01DX001 (ip), vehicle: Klucel (hydroxypropylcellulose) (HPC)) 86 % of control.
Regarding `CCOC(=O)OCC(=O)[C@@]1(O)CC[C@H]2[C@@H]3CCC4=CC(=O)CC[C@]4(C)[C@H]3[C@@H](O)C[C@@]21C`, the T/C by setting is: under setting [2], 104 % of control; (dose: 50.0 mg/kg/injection, schedule: Q04DX003 (ip), vehicle: saline with Tween-80) 100 % of control; under setting [7], 100 % of control; (dose: 100.0 mg/kg/injection, schedule: Q04DX003 (ip), vehicle: saline with Tween-80) 100 % of control; (dose: 200.0 mg/kg/injection, schedule: Q01DX009 (ip), vehicle: saline with Tween-80) 90 % of control; (dose: 200.0 mg/kg/injection, schedule: Q04DX003 (ip), vehicle: saline with Tween-80) 100 % of control.
On to `NC(=S)c1cccc(OCCCOc2ccccc2)c1`, for which the T/C under setting [8] is 96 % of control and the T/C under setting [9] was 91 % of control.
On to `CCOC(=O)Cn1cnc2cc(Cl)c([N+](=O)[O-])cc2c1=O`, for which the T/C reads like this: (dose: 100.0 mg/kg/injection, schedule: Q04DX003 (ip), vehicle: Klucel (hydroxypropylcellulose) (HPC)) 100 % of control and 110 % of control; (dose: 200.0 mg/kg/injection, schedule: Q04DX003 (ip), vehicle: Klucel (hydroxypropylcellulose) (HPC)) 101 % of control and 121 % of control; (dose: 400.0 mg/kg/injection, schedule: Q04DX003 (ip), vehicle: Klucel (hydroxypropylcellulose) (HPC)) 100 % of control; (dose: 600.0 mg/kg/injection, schedule: Q04DX003 (ip), vehicle: Klucel (hydroxypropylcellulose) (HPC)) 107 % of control.
Regarding `NC(=O)CCCSC1=CC(=O)c2ccccc2C1=O`, the T/C (dose: 3.12 mg/kg/injection, schedule: Q04DX002 (ip), vehicle: saline with Tween-80) was 104 % of control; the T/C (dose: 6.25 mg/kg/injection, schedule: Q04DX002 (ip), vehicle: saline with Tween-80) is 101 % of control; the T/C (dose: 12.5 mg/kg/injection, schedule: Q04DX002 (ip), vehicle: saline with Tween-80) is 111 % of control and 114 % of control.
For `O=NN(CCCl)C(=O)NCCO`, the T/C was 96 % of control (dose: 0.78 mg/kg/injection, schedule: Q01DX005 (ip), vehicle: water); 104 % of control (dose: 3.12 mg/kg/injection, schedule: Q01DX005 (ip), vehicle: water); 250 % of control (dose: 3.13 mg/kg/injection, schedule: Q01DX005 (ip), vehicle: water); 116 % of control (dose: 12.5 mg/kg/injection, schedule: Q01DX005 (ip), vehicle: water); 150 % of control (dose: 25.0 mg/kg/injection, schedule: Q01DX005 (ip), vehicle: water); 218 % of control (dose: 50.0 mg/kg/injection, schedule: Q01DX005 (ip), vehicle: water).
For the molecule `N#CC1=C(C#N)C(=O)c2ccccc2C1=O`, the T/C is, setting by setting: under setting [1], 104 % of control; under setting [2], 104 % of control.
Consider `CCC(c1ccc(OCc2ccccc2)cc1)c1cc2c(cc1OC)OCO2` (centres undefined), for which the T/C (dose: 25.0 mg/kg/injection, schedule: Q01DX005 (ip), vehicle: distilled water + Tween-80) was 98 % of control; the T/C (dose: 50.0 mg/kg/injection, schedule: Q01DX005 (ip), vehicle: distilled water + Tween-80) is 92 % of control; the T/C (dose: 100.0 mg/kg/injection, schedule: Q01DX005 (ip), vehicle: distilled water + Tween-80) was 86 % of control; the T/C (dose: 200.0 mg/kg/injection, schedule: Q01DX005 (ip), vehicle: distilled water + Tween-80) is 88 % of control.
For the molecule `C[N+](C)(Cc1ccccc1)c1nnn[n-]1`, the T/C (dose: 50.0 mg/kg/injection, schedule: Q01DX001 (ip), vehicle: Klucel (hydroxypropylcellulose) (HPC)) was 97 % of control; the T/C under setting [5] was 95 % of control; the T/C under setting [6] is 105 % of control.
`CC1=NN=C(C)C1=Cc1ccccc1[N+](=O)[O-]`: the T/C is 99 % of control under setting [10], 95 % of control under setting [11] and 101 % of control under setting [12].
As for `OC1(c2cc3ccccc3c3ccccc23)c2ccccc2-c2ccccc21`, the T/C was 98 % of control under setting [3]; 100 % of control under setting [4]; 100 % of control (dose: 200.0 mg/kg/injection, schedule: Q01DX005 (ip), vehicle: saline with Tween-80).
For `CC(=O)Nc1ccc(S(=O)(=O)Oc2noc3ccccc23)cc1`, the T/C was 108 % of control under setting [8], 96 % of control under setting [9] and 102 % of control under setting [13].
Regarding `O=C1c2ccccc2C(=O)c2c(NCCC3CCCN4CCCCC34)cccc21` (centres undefined), the T/C is 94 % of control under setting [8], 97 % of control under setting [9] and 96 % of control under setting [13].
As for `CCCCn1c2nc(=O)[nH]c(=O)c-2cc2ccccc21`, the T/C runs as follows: under setting [1], 98 % of control; under setting [2], 94 % of control; under setting [7], 91 % of control.
As for `O=C(/C=C\c1ccc(Cl)cc1)c1ccccc1`, the T/C is 101 % of control and 91 % of control (dose: 12.5 mg/kg/injection, schedule: Q01DX009 (ip), vehicle: Klucel (hydroxypropylcellulose) (HPC)); 100 % of control (dose: 25.0 mg/kg/injection, schedule: Q01DX009 (ip), vehicle: Klucel (hydroxypropylcellulose) (HPC)); 93 % of control and 95 % of control under setting [10]; 98 % of control (dose: 50.0 mg/kg/injection, schedule: Q01DX009 (ip), vehicle: gum acacia); 99 % of control and 93 % of control under setting [11]; 104 % of control (dose: 100.0 mg/kg/injection, schedule: Q01DX009 (ip), vehicle: gum acacia). Moreover, the T/C under setting [12] was 98 % of control and 100 % of control; the T/C (dose: 200.0 mg/kg/injection, schedule: Q01DX009 (ip), vehicle: gum acacia) is 104 % of control; the T/C (dose: 400.0 mg/kg/injection, schedule: Q01DX009 (ip), vehicle: Klucel (hydroxypropylcellulose) (HPC)) was 108 % of control and 92 % of control; the T/C (dose: 400.0 mg/kg/injection, schedule: Q01DX009 (ip), vehicle: gum acacia) was 104 % of control.
In the case of `O=C(NC12OC3CC(CC(C3)O1)O2)NC12OC3CC(CC(C3)O1)O2`, the T/C is, setting by setting: (dose: 100.0 mg/kg/injection, schedule: Q01DX001 (ip), vehicle: saline with Tween-80) 100 % of control; (dose: 200.0 mg/kg/injection, schedule: Q01DX001 (ip), vehicle: saline with Tween-80) 100 % of control; (dose: 400.0 mg/kg/injection, schedule: Q01DX001 (ip), vehicle: saline with Tween-80) 111 % of control.
